ChEMBL document CHEMBL1136941, “Discovery of novel arylpyrazole series as potent and selective opioid receptor-like 1 (ORL1) antagonists” (Bioorg Med Chem Lett, 2009)

How the values were obtained:
Nociceptin receptor [1] = biological target: T1, Nociceptin receptor (Homo sapiens, UniProt P41146); assay: Displacement of [125I]Tyr14-NC/OFQ from human ORL1 receptor
[2] = Lipophilicity, log D at pH 7.4 by shake-flask method; format: physicochemical; settings: buffer
Nociceptin receptor [3] = biological target: T1, Nociceptin receptor; assay: Antagonist activity at ORL1 receptor expressed in CHO cells assessed as inhibition of NC/OFQ-stimulated [35S]GTPgammaS binding; format: functional, cell-based
[4] = biological target: Voltage-gated inwardly rectifying potassium channel KCNH2 (Homo sapiens, UniProt Q12809); assay: Displacement of [35S]MK499 from human ERG expressed in HEK293 cells
Mu-type opioid receptor = Mu-type opioid receptor (Homo sapiens, UniProt P35372); assay: Displacement of [3H]diprenorphin from human cloned mu opioid receptor expressed in CHO cells; format: cell-based
[5] = biological target: Kappa-type opioid receptor (Homo sapiens, UniProt P41145); assay: Displacement of [3H]U69593 from human cloned kappa opioid receptor expressed in CHO cells; format: cell-based
Chain of Kappa-type opioid receptor (P41145 whole entry): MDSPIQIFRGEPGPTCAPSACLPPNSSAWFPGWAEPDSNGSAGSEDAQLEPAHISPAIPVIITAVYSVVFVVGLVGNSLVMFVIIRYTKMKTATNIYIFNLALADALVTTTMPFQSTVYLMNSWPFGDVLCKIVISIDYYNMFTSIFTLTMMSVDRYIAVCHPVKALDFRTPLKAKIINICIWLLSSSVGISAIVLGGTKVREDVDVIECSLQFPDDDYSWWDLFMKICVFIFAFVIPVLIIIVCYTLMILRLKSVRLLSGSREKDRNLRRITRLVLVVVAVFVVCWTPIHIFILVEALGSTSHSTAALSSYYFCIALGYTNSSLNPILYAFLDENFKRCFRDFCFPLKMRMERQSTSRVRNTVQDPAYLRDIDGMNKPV

T1 sequence (P41146 whole entry): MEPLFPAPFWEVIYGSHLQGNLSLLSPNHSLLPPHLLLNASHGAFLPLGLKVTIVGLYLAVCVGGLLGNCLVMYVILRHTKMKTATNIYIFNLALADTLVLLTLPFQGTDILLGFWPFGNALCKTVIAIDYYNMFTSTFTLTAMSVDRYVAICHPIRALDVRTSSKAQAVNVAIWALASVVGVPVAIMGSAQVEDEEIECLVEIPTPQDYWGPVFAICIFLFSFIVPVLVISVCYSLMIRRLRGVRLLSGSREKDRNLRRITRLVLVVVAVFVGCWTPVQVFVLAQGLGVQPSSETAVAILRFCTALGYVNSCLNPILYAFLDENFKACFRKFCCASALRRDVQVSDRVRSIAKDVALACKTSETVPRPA
Chain of Voltage-gated inwardly rectifying potassium channel KCNH2 (Q12809 whole entry): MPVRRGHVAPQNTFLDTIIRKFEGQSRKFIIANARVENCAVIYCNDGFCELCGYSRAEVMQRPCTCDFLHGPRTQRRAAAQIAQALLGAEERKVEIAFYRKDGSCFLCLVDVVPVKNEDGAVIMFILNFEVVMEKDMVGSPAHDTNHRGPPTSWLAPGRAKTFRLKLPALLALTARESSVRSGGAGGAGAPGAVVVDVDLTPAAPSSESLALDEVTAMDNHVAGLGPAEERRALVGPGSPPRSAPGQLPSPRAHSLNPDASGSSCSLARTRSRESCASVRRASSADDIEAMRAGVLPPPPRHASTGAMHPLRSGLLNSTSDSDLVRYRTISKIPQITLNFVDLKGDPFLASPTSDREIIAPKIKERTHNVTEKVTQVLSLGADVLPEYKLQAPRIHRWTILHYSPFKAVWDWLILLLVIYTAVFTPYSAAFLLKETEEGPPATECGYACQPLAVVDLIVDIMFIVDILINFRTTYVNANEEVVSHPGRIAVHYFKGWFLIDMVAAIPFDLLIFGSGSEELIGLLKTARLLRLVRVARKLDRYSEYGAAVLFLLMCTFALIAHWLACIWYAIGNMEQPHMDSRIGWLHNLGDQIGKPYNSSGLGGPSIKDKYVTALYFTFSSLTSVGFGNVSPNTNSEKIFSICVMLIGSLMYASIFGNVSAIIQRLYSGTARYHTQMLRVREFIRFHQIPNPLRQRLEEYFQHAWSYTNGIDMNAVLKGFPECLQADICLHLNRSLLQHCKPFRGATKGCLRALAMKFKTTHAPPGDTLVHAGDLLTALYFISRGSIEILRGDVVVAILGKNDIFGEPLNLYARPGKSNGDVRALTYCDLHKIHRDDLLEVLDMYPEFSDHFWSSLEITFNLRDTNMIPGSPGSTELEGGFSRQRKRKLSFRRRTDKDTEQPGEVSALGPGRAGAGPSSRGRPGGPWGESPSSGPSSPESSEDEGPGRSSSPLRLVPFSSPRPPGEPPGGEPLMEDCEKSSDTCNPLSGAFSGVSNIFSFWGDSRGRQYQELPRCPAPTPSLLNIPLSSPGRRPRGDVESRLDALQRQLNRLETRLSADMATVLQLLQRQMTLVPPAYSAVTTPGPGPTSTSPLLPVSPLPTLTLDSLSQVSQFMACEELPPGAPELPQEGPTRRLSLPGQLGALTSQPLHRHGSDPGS
Chain of Mu-type opioid receptor (P35372 whole entry): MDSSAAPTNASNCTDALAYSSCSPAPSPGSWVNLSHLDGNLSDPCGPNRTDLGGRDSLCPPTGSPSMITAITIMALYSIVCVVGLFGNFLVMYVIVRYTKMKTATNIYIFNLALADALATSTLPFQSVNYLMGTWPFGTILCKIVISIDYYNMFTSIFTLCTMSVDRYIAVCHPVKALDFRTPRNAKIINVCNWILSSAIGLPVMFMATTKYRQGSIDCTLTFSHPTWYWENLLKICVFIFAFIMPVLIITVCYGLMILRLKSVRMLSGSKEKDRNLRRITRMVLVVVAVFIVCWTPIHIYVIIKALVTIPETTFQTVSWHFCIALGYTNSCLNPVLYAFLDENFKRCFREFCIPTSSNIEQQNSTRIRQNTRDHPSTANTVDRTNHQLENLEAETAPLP

Row | SMILES | IC50 (Nociceptin receptor [1]) | logD [2] | IC50 (Nociceptin receptor [3]) | IC50 [4] | IC50 (Mu-type opioid receptor) | IC50 [5]
1 | Cc1ccc(-c2c(C)c(CNC3CCCC3)nn2-c2ncccc2C(F)(F)F)cn1 | 36 nM | 1.9 |  |  |  | 
2 | Cc1ccc(-c2c(C)c(CNC3CCCC3)nn2-c2ncccc2Cl)cn1 | 4 nM | 1.7 | 4.7 nM | 16000 nM |  | 
3 | Cc1c(CNC2CCCCC2)nn(-c2ccc(Cl)cc2Cl)c1-c1ccc(Cl)cc1 | 75 nM |  |  |  |  | 
4 | Cc1c(CNCCC(C)C)nn(-c2ccc(Cl)cc2Cl)c1-c1ccc(Cl)cc1 | 150 nM |  |  |  |  | 
5 | CCc1ccc(-c2c(C)c(CNC3CCCC3)nn2-c2ncccc2Cl)cn1 | 67 nM | 2 |  |  |  | 
6 | Cc1ccc(-c2c(C)c(CN[C@H]3CC[C@@H](F)C3)nn2-c2ncccc2Cl)cn1 | 2.5 nM | 1.3 | 1 nM |  |  | 
7 | Cc1ccc(-c2c(C)c(CNC3CCCC3)nn2-c2ncc(Cl)cc2Cl)cn1 | 8.2 nM | 2.5 |  |  |  | 
8 | Cc1ccc(-c2c(C)c(CNC3CCCC3F)nn2-c2ncccc2Cl)cn1 (stereo not given) | 7.1 nM | 2 | 11 nM | 30000 nM |  | 
9 | Cc1c(CNC2CCCC2)nn(-c2ccc(Cl)cc2Cl)c1-c1ccccn1 | 530 nM |  |  |  |  | 
10 | Cc1c(CNC2CCCC2)nn(-c2ncccc2Cl)c1-c1cccnc1 | 61 nM | 1.3 |  | 23000 nM |  | 
11 | Cc1c(CN(C(C)C)C2CCCCC2)nn(-c2ccc(Cl)cc2Cl)c1-c1ccc(Cl)cc1 | > 1000 nM |  |  |  |  | 
12 | Cc1ncc(-c2c(C)c(CNC3CCCC3)nn2-c2ncccc2Cl)cc1F | 1.1 nM | 2.1 | 1.2 nM |  |  | 
13 | Cc1ccc(-c2c(C)c(CNC3CCC(F)(F)C3)nn2-c2ncccc2Cl)cn1 (stereo not given) | 9.3 nM | 2.1 | 4.5 nM | 21000 nM |  | 
14 | Cc1c(CNC2CCCC2)nn(-c2ccc(Cl)cc2Cl)c1-c1ccncc1 | > 1000 nM |  |  |  |  | 
15 | Cc1c(CNC2CCCC2)nn(-c2ncccc2Cl)c1-c1ccc(C(F)(F)F)nc1 | 270 nM | 2.2 |  |  |  | 
16 | Cc1ccc(-c2c(C)c(CNC3CCCC3)nn2-c2ncccc2S(C)(=O)=O)cn1 | 72 nM |  |  |  |  | 
17 | Cc1c(CNC2CCCC2)nn(-c2ccc(Cl)cc2Cl)c1-c1cccnc1 |  | 2.9 |  |  |  | 
18 | Cc1c(CNC2CCCC2)nn(-c2ccc(Cl)cc2Cl)c1-c1ccc(Cl)cc1 | 28 nM | > 4 |  | 23 nM |  | 
19 | Cc1ccc(-c2c(C)c(CNC3CCCC3)nn2-c2ncccc2C)cn1 | 33 nM | 1.2 |  |  |  | 
20 | Cc1cncc(-c2c(C)c(CNC3CCCC3)nn2-c2ncccc2Cl)c1 | 13 nM | 1.6 |  | 9000 nM |  | 
21 | Cc1ncc(-c2c(C)c(CN[C@H]3CC[C@@H](F)C3)nn2-c2ncccc2Cl)cc1F | 0.52 nM | 1.8 | 0.31 nM | 41000 nM | 5600 nM | 530 nM
22 | Cc1c(CNC(C)C)nn(-c2ccc(Cl)cc2Cl)c1-c1ccc(Cl)cc1 | 350 nM |  | 480 nM | 23 nM |  | 
23 | Cc1c(CN(C)C2CCCCC2)nn(-c2ccc(Cl)cc2Cl)c1-c1ccc(Cl)cc1 | > 1000 nM |  |  |  |  | 
24 | Cc1c(CNC2CCCC2)nn(-c2ncccc2Cl)c1-c1ccc(Cl)nc1 | 11 nM | 2.1 | 12 nM | 2700 nM |  | 
25 | Cc1c(CNCC(C)C)nn(-c2ccc(Cl)cc2Cl)c1-c1ccc(Cl)cc1 | 150 nM |  |  |  |  | 
26 | Cc1c(CN2CCCCC2)nn(-c2ccc(Cl)cc2Cl)c1-c1ccc(Cl)cc1 | 560 nM |  |  |  |  | 
